Each structure is given as a SMILES string.

Usually logP stands for a log measure of how a compound divides between an organic and an aqueous phase.

In turn, `COC(=O)Nc1ccccc1` registered a logP of 1.75.

`CCc1ccc(NC(=O)OC)cc1` registered a logP of 2.72.

On to `COC(=O)Nc1ccc(C#N)cc1`, for which the logP came out at 1.82.

`CCOc1ccc(NC(=O)OC(CBr)CBr)cc1OCC`: the logP is 3.5.

`COC(=O)Nc1cccc(I)c1` returned a logP of 3.03.

For `C#CCOC(=O)Nc1ccc(OCC)c(OCC)c1`, the logP came out at 2.68.

Take `CCCOC(=O)Nc1ccc(OCC)c(OCC)c1`: the logP is 2.93.

Turning to `CCOC(=O)Nc1ccc(OCC)c(OCC)c1`, the logP came to 2.54.

For `COC(=O)Nc1cccc(C(C)=O)c1`, the lipophilicity (logP) was 1.63.

For the compound `COC(=O)Nc1ccccc1C(F)(F)F`, the logP is 2.09.

As to `CCOc1ccc(NC(=O)OCC(C)C)cc1OCC`, the logP worked out at 3.36.

Compound `COC(=O)Nc1cccc(C#N)c1` displayed a logP of 1.77.

Consider `CCOc1ccc(NC(=O)OC(C)C)cc1OCC`, for which the logP worked out at 2.91.

Regarding `COC(=O)Nc1ccccc1Cl`, the logP is 2.16.

Regarding `CCOc1ccc(NC(=O)OCCOC)cc1OCC`, the logP worked out at 2.27.

`CCCCc1ccc(NC(=O)OC)cc1` returned a logP of 3.69.

On to `CCc1cccc(NC(=O)OC)c1`, for which the lipophilicity (logP) was 2.74.

On to `CCOc1ccc(NC(=O)OCc2ccccc2)cc1OCC`, for which the logP worked out at 3.29.

`CCCCOC(=O)Nc1ccc(OCC)c(OCC)c1`: the logP came out at 3.46.

Take `COC(=O)Nc1cccc(C)c1`: the logP amounted to 2.29.

As for `COC(=O)Nc1ccccc1I`, the logP turned out to be 2.44.

On to `COC(=O)Nc1ccc(F)cc1`, for which the logP came to 1.95.

`CCOc1ccc(NC(=O)OC)cc1` displayed a logP of 2.15.

In turn, `CCOc1ccc(NC(=O)OCCC#N)cc1OCC` yielded a logP of 2.07.

Compound `CCOc1ccc(NC(=O)OC)cc1OCC` returned a logP of 2.1.

Compound `C=CCOC(=O)Nc1ccc(OCC)c(OCC)c1` gave a logP of 2.75.

Turning to `COC(=O)Nc1cccc(OC)c1`, the logP was 1.92.

In turn, `COC(=O)Nc1ccccc1OC` showed a lipophilicity (logP) of 1.84.

`COC(=O)Nc1ccccc1F` showed a logP of 1.66. This logP and that of the compound before are within 0.2 log units of each other.

The compound `COC(=O)Nc1cccc(Br)c1` yielded a logP of 2.75.

The compound `COC(=O)Nc1cccc([N+](=O)[O-])c1` came in with a logP of 2.

For `CCOc1cccc(NC(=O)OC)c1`, the logP amounted to 2.31.

`COC(=O)Nc1ccc(OC)cc1` came in with a logP of 1.73.

For `CCOc1ccccc1NC(=O)OC`, the logP is 2.43.

`COC(=O)Nc1cccc(C(F)(F)F)c1` yielded a logP of 2.74.

With `COC(=O)Nc1ccc(Cl)cc1`, the logP is 2.55.

`COC(=O)Nc1ccc(C)cc1` gave a logP of 2.29.

As for `COC(=O)Nc1ccccc1Br`, the logP stood at 2.3.

Consider `COC(=O)Nc1ccccc1C`, for which the logP came out at 1.69.

Compound `COC(=O)Nc1ccccc1[N+](=O)[O-]` returned a logP of 2.1.

For the compound `COC(=O)Nc1ccc([N+](=O)[O-])cc1`, the logP turned out to be 2.12.

Source of the values: the OPERA property sets (Mansouri et al. 2018).
